Experimental data published in ChEMBL document CHEMBL1155373, “Triterpene compounds isolated from Acer mandshuricum and their anti-inflammatory activity” (Bioorg Med Chem Lett, 2010).

Experiments:
HL-60 = assay: Growth inhibition of human HL60 cells by MTT assay; format: functional
SK-OV-3 = assay: Growth inhibition of human SKOV3 cells by MTT assay; format: functional
A549 = assay: Growth inhibition of human A549 cells by MTT assay; format: functional
HT-29 = assay: Growth inhibition of human HT-29 cells by MTT assay; format: functional
RAW264.7 = assay: Antiinflammatory activity in mouse RAW264.7 cells assessed as inhibition of LPS-stimulated TNFalpha production at 100 nM pretreated 1 hr before LPS challenge measured after 24 hrs by sandwich ELISA relative to control; format: functional
A2780 = assay: Cytotoxicity against human A2780 cells; format: functional, cell-based

SMILES	GI50 (HL-60)	GI50 (SK-OV-3)	GI50 (A549)	GI50 (HT-29)	inhibition at 0.1 µM (RAW264.7)	IC50 (A2780)
C[C@H]1C(=O)CC[C@@H]2[C@]1(C)CC[C@H]1[C@@]2(C)CC[C@@]2(C)[C@@H]3CC(C)(C)CC[C@]3(C)CC[C@]12C [FRIEDELINE]	12.2 µM	12.7 µM	11.1 µM	13.5 µM	23.5%	
CC(=O)O[C@H]1CC[C@@H]2C(=CC[C@H]3[C@@]2(C)CC[C@@]2(C)[C@@H]4CC(C)(C)CC[C@]4(C)CC[C@]32C)C1(C)C [GLUTINOL ACETATE]	16.2 µM	12.1 µM	17.9 µM	16.3 µM	25.4%	
CC1(C)CC[C@]2(C)CC[C@]3(C)[C@H]4CC=C5[C@@H](CC[C@H](O)C5(C)C)[C@]4(C)CC[C@@]3(C)[C@@H]2C1 [GLUTINOL]	16 µM	12.6 µM	11.6 µM	14.1 µM	16.9%	
CC(=O)O[C@H]1CC[C@]2(C)[C@H]3CC=C4[C@@H]5CC(C)(C)CC[C@]5(C)CC[C@@]4(C)[C@]3(C)CC[C@H]2C1(C)C [beta-AMYRIN ACETATE]	14.6 µM	14.6 µM	11.4 µM	12.5 µM	38.4%	12.5 µg/mL
CC[C@H](CC[C@@H](C)[C@H]1CC[C@H]2[C@@H]3CC=C4C[C@@H](O[C@@H]5O[C@H](CO)[C@@H](O)[C@H](O)[C@H]5O)CC[C@]4(C)[C@H]3CC[C@]12C)C(C)C [SITOGLUSIDE]	50.8 µM	29.8 µM	35.5 µM	46.8 µM	29.3%	
CC(=O)O[C@H]1CC[C@@]2(C)[C@@]3(OC[C@@H](OO3)[C@]3(C)[C@@]2(C)CC[C@@]2(C)[C@@H]4CC(C)(C)CC[C@]4(C)CC[C@]32C)C1(C)C [ACERANOL ACETATE]	13.7 µM	12.8 µM	11.4 µM	14.6 µM	21%	
O=C1c2c(O)ccc(O)c2C(=O)c2c(NCCNCCO)ccc(NCCNCCO)c21 [MITOXANTRONE]	7.8 µM	11 µM	8.3 µM	8.9 µM		
